Literature values as cited in US6399819B1, “Process for purifying creatine” (BASF Aktiengesellschaft, priority 1999, dated 2002).

Conditions: recrystallization from water

## CN(CC(=O)O)C(=N)N [creatine]
  temperature above which decomposition of creatine to creatinine and N-methylhydantoin increases to a level no longer acceptable: about 80 °C
